Source: ChEMBL document CHEMBL3244287, “Adrenergic agents. 4. Substituted phenoxypropanolamine derivatives as potential beta-adrenergic agonists” (J Med Chem, 1977)
Active and inactive are the calls of the source. The calls are words filed in the database; no cut-off is given here.

Assays:
[1] = species: Cavia porcellus; assay: Selectivity ratio of ED50 for beta-2 adrenergic receptor in guinea pig trachea over ED50 for beta-1 adrenergic receptor in guinea pig atria
[2] = target: Beta-2 adrenergic receptor (Cavia porcellus) (UniProt Q8K4Z4); details: Trachea
Beta-2 adrenergic receptor (Cavia porcellus) (UniProt Q8K4Z4), sequence (Q8K4Z4 whole entry, looked up): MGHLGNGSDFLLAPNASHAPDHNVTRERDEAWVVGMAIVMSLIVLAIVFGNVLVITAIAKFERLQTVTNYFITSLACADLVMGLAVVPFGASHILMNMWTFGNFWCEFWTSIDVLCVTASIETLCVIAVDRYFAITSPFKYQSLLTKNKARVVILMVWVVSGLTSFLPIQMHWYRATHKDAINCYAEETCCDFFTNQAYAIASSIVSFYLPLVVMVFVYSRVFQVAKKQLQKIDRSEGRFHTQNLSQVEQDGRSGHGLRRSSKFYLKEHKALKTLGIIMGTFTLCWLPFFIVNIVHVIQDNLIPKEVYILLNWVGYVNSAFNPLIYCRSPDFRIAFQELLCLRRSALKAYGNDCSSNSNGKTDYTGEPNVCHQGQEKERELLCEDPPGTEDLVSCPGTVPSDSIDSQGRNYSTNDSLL

[3] = target: Beta-1 adrenergic receptor (Cavia porcellus) (UniProt B0FL73); assay: Antagonist activity at beta-1 adrenergic receptor in guinea pig atria assessed as inhibition of isoproterenol-induced increase in rate of contraction of spontaneously beating right atria at 8.4 x 10^-5 M
Beta-1 adrenergic receptor (Cavia porcellus), sequence (B0FL73 1-467): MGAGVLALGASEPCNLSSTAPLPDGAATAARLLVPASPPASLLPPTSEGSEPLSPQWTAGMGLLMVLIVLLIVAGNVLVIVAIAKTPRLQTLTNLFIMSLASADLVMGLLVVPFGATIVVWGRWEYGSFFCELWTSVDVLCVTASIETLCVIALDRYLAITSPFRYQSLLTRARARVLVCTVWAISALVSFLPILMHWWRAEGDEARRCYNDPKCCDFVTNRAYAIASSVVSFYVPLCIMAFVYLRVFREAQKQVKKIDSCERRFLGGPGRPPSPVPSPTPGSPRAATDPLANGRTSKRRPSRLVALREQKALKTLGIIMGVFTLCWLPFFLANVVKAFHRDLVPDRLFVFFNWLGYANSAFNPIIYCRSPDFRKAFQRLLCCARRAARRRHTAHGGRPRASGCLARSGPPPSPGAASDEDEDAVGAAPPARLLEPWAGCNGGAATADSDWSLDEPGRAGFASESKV

[4] = target: Beta-1 adrenergic receptor (Cavia porcellus) (UniProt B0FL73)
[5] = target: Beta-1 adrenergic receptor (Cavia porcellus) (UniProt B0FL73); assay: Agonist activity at beta-1 adrenergic receptor in guinea pig atria assessed as increase in rate of contraction of spontaneously beating right atria at 9 x 10^-5 M
[6] = target: Beta-2 adrenergic receptor (Cavia porcellus) (UniProt Q8K4Z4); assay: Intrinsic activity at beta-2 adrenergic receptor in guinea pig trachea assessed as relaxation of spontaneously contracted muscle relative to papaverine
[7] = target: Beta-1 adrenergic receptor (Cavia porcellus) (UniProt B0FL73); assay: Ratio of isoproterenol ED50 to compound ED50 for beta-1 adrenergic receptor in guinea pig atria assessed as increase in rate of contraction of spontaneously beating right atria
[8] = system: Canis familiaris; assay: Reduction of heart rate in iv dosed anesthetized dog in presence of 2 mg/kg of propranolol, iv; format: functional, organism-based; set-up: dose 2 mg/kg; details: Canis lupus familiaris
[9] = system: Beta-2 adrenergic receptor (Cavia porcellus); assay: Ratio of isoproterenol ED50 to compound ED50 for beta-2 adrenergic receptor in guinea pig trachea assessed as relaxation of spontaneously contracted muscle
[10] = target: Beta-1 adrenergic receptor (Cavia porcellus) (UniProt B0FL73); assay: Ratio of N-tert-butyl-norepinephrine ED50 to compound ED50 for beta-1 adrenergic receptor in guinea pig atria assessed as increase in rate of contraction of spontaneously beating right atria
[11] = system: Canis familiaris; assay: Reduction of diastolic blood pressure in iv dosed anesthetized dog in presence of 2 mg/kg of propranolol, iv; format: functional, organism-based; set-up: dose 2 mg/kg; details: Canis lupus familiaris; Artery
[12] = system: Canis familiaris; assay: Reduction of diastolic blood pressure in iv dosed anesthetized dog; format: functional, organism-based; details: Canis lupus familiaris; Artery
[13] = target: Beta-1 adrenergic receptor (Cavia porcellus) (UniProt B0FL73); assay: Antagonist activity at beta-1 adrenergic receptor in guinea pig atria assessed as inhibition of isoproterenol-induced increase in rate of contraction of spontaneously beating right atria at 6.3 x 10^-5 M
[14] = target: Beta-1 adrenergic receptor (Cavia porcellus) (UniProt B0FL73); assay: Antagonist activity at beta-1 adrenergic receptor in guinea pig atria assessed as inhibition of isoproterenol-induced increase in rate of contraction of spontaneously beating right atria at 3 x 10^-7 M
[15] = target: Beta-1 adrenergic receptor (Cavia porcellus) (UniProt B0FL73); assay: Agonist activity at beta-1 adrenergic receptor in guinea pig atria assessed as increase in rate of contraction of spontaneously beating right atria at 4.8 x 10^-5 M
[16] = target: Beta-2 adrenergic receptor (Cavia porcellus) (UniProt Q8K4Z4); assay: Agonist activity at beta-2 adrenergic receptor in guinea pig trachea assessed as relaxation of spontaneously contracted muscle at 4.8 x 10^-5 M; set-up: scale not given: the % may be the effect or the level left
[17] = target: Beta-1 adrenergic receptor (Cavia porcellus) (UniProt B0FL73); assay: Antagonist activity at beta-1 adrenergic receptor in guinea pig atria assessed as inhibition of isoproterenol-induced increase in rate of contraction of spontaneously beating right atria at 1 x 10^-3 M

Ratio ED50 [1] | ED50 [2] | ED25 [4] | Compound | other results
> 27 | 3400 nM | 9 ×10⁻⁵ M | CC(C)(C)NCC(O)COc1ccc(NS(C)(=O)=O)c(O)c1 (centres undefined) | Activity [5]: 19%; Intrinsic activity [6]: 0.8
2.9 | 2.6 ×10⁻⁸ M | 7.6 ×10⁻⁸ M | CC(C)NCC(O)c1ccc(O)c(NS(C)(=O)=O)c1 (centres undefined) | 
0.034 | 3.2 ×10⁻¹⁰ M | 1.1 ×10⁻¹¹ M | CC(C)(C)NCC(O)COc1ccc(O)c(O)c1 (centres undefined) | Ratio ED50 [7]: 310; Activity [8]: inactive; Ratio ED50 [9]: 22; Ratio ED50 [10]: 650; Activity [11]: inactive; Activity [12]: Active
26 | 2.1 ×10⁻⁸ M | 5.4 ×10⁻⁷ M | CC(C)(C)NCC(O)COc1cccc(O)c1 (centres undefined) | inhibition [13]: Active
 | 7.1 nM |  | CC(C)NCC(O)c1ccc(O)c(O)c1 (centres undefined) | 
182 | 6.6 nM | 1200 nM | CC(C)(C)NCC(O)COc1ccc(O)c(NS(C)(=O)=O)c1 (centres undefined) | inhibition [14]: 44%

Continued, molecule first:

Compound | Ratio ED50 [1] | ED50 [2] | ED25 [4] | other results
CC(C)(C)NCC(O)COc1ccc(O)cc1 (centres undefined) | 3.8 | 1.3 ×10⁻⁸ M | 5 ×10⁻⁸ M | inhibition [3]: Active
CC(C)NCC(O)c1ccc(O)cc1 (centres undefined) | 0.7 | 1.1 ×10⁻⁷ M | 7.7 ×10⁻⁸ M | 
CC(C)(C)NC[C@H](O)c1ccc(O)c(O)c1 | 5.5 | 1.3 nM | 7.1 nM | 
CC(C)NCC(O)c1cccc(O)c1 (centres undefined) | 0.8 | 4.5 ×10⁻⁸ M | 3.7 ×10⁻⁸ M | 
CC(C)(C)NCC(O)COc1ccc(CS(C)(=O)=O)cc1 (centres undefined) |  | 4.8 ×10⁻⁵ M | 4.8 ×10⁻⁵ M | Activity [15]: 0%; Activity [16]: 0%; inhibition [17]: 78%
